We go through 28 compounds from US7786152B2, “Compound” (priority 2002, dated 2010).

The inhibition is the change of the read-out against control, counted positive when it falls.

SMILES strings stand for the structures.

The assay addresses T1, 11 β-HSD type 2 (Rattus norvegicus, UniProt P50233).
T1 construct: Both the kidneys and livers were homogenised on ice in PBS-sucrose buffer; tissue Harlan Olac (rats); host or cells: Wistar rat kidney homogenate supernatant
T1 sequence (P50233 1-400): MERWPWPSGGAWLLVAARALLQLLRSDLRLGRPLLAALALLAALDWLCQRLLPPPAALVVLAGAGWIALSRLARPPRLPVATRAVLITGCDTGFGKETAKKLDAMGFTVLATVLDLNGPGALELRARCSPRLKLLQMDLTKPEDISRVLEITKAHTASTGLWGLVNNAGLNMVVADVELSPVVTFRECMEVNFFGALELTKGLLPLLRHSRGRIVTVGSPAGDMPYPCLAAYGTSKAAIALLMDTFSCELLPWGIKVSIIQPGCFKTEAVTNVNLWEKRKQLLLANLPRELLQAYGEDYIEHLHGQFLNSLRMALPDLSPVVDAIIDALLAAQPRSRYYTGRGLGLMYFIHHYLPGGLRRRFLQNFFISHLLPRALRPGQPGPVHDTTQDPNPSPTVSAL
The assay is described as follows: 11 β-HSD type 2 inhibition, rat kidney homogenate, conversion F to E (radiometric TLC). Conditions: read-out: % inhibition of 11β HSD2 @ 10 μM, typical sd ± 5%, means n=2. It is filed as biochemical. How it is done: Enzymes—Rat livers and rat kidneys were obtained from normal Wistar rats (Harlan Olac, Bicester, Oxon, UK). Both the kidneys and livers were homogenised on ice in PBS-sucrose buffer (1 g/10 ml) using an Ultra-Turrax. After the livers and kidneys were homogenised the homogenate was centrifuged for five minutes at 4000 rpm. The supernatant obtained was removed and stored in glass vials at −20° C. The amount of protein per μl of rat liver and kidney cytosol was determined using the Bradford method.
The same procedure was used for the 11 β-HSD type 2 assay, the conversion F to E, to determine the amount of rat kidney to be used and the incubation time. Except this time the substrate solution contained ^3H—F and unlabelled F and the recovery contained ^14C-E and unlabelled E and cortisone has a Rf value of 0.65 on the TLC-plate.
In these assays the influence of different inhibitors on the 11 β-HSD activity both in reductive (type 1) and oxidative (type 2) directions were assessed. In the reductive direction E is the substrate and F the product and visa versa in the case of oxidation. The method described here is for the oxidative direction.
The substrate solution contained about 50,000 cpm/ml ^3H—F in PBS-sucrose and 0.5 μM F. 1 ml of the substrate solution was added to each tube, the inhibitors were also added, at a 10 μM concentration, to each tube except to the “control” and “blank” tubes. 150 μL was added to all tubes except to the blanks, this was done to correct for the amount of ^3H—F spontaneously formed. The tubes were incubated for 60 minutes in a mechanically shaken water bath at 37° C. The amount of kidney liver homogenate and incubation time used resulted from the enzyme- and time-dependency assay. After incubation 50 μL of recovery was added to correct for the losses made in the next steps, containing 5000 cpm/50 μL of ^14C-E and 50 μg/50 μL of unlabelled E (to visualise the spot on the TLC-plate). The aqueous mixture was then extracted with 4 ml of ether (2×30 sec cycle, vortex mix). After freezing the aqueous phase, the ether (upper) layer was decanted into smaller tubes and evaporated at 45° C. until completely dry. The residue was then re-dissolved in 6 drops of ether and transferred to a TLC-plate. The TLC-plate was developed in chloroform:methanol (9:1 v/v) solvent system, the TLC-plate ran for about 90 minutes until the solvent front had moved about 18 cm. The position of the product E was visualised under UV-light and cut out from the TLC-plate and put into scintillation vials. Radioactivity was eluted over 5 minutes with 0.5 ml methanol. 0.5 ml of PBS-sucrose and 10 ml of Ecoscint were then added and vortex mixed before counting in the scintillation counter. Before counting the samples, two total activity vials were prepared. These contained 0.5 ml of the substrate solution, 50 μL of the recovery, 0.5 ml of methanol and 10 ml of Ecoscint. These two total activity vials were needed to determine the amount of ^14C-E and ^3H—F added in the beginning to make the calculations.
To look at the percentage of inhibition four different concentrations, 1, 5, 10 and 20 μM, were used. The method for both the rat liver, type 1 the reductive, and rat kidney, type 2 the oxidative, stay the same throughout the entire experiment.
In this experiment the amount of rat liver homogenate and rat kidney homogenate added to each tube and the incubation time was determined. […] After drawing the graphs the optimal amount of rat liver cytosol and rat kidney cytosol and both their incubation times were selected. One important rule when selecting both variables, to select an amount of rat liver and rat kidney and incubation time on a linear part of the graph. This is done to avoid fluctuations in enzyme activity. The amount of rat liver cytosol selected was 25 μL and 90 minutes of incubation time, the amount of rat kidney cytosol selected was 150 μL and 60 minutes of incubation time. […]
For the compound `Cc1nc2cc(NS(=O)(=O)c3ccc(Cl)cc3Cl)ccc2s1` [compound 412], the inhibition at 10 µM was found to be 3%.

For `Cc1nc2cc(NS(=O)(=O)c3cccc(Cl)c3C)ccc2s1` [compound 413], the inhibition at 10 µM is 0.2%.

As to `CCCc1ccc(S(=O)(=O)Nc2ccc3sc(C)nc3c2)cc1` [compound 421], the inhibition at 10 µM came out at 0.9%.

Regarding `COc1ccc(S(=O)(=O)Nc2ccc3sc(C)nc3c2)cc1` [compound 424], the inhibition at 10 µM was found to be 0.7%.

Take `Cc1nc2cc(NS(=O)(=O)c3c(C)cccc3Cl)ccc2s1` [compound 425]: the inhibition at 10 µM is 0%.

Take `Cc1nc2cc(N(C)S(=O)(=O)c3cccc(Cl)c3C)ccc2s1` [compound 469]: the inhibition at 10 µM was determined as 29%.

Consider `CCN(c1ccc2sc(C)nc2c1)S(=O)(=O)c1cccc(Cl)c1C` [compound 470], for which the inhibition at 10 µM worked out at 30%.

For the compound `Cc1nc2cc(NS(=O)(=O)c3ccc(Br)cc3)ccc2s1` [compound 519], the inhibition at 10 µM amounted to 8%.

With `Cc1nc2cc(NS(=O)(=O)c3ccc(-c4ccccc4)cc3)ccc2s1` [compound 521], the inhibition at 10 µM is 5%.

On to `Cc1nc2cc(NS(=O)(=O)c3c(Cl)cc(Cl)cc3Cl)ccc2s1` [compound 522], for which the inhibition at 10 µM is 6%.

As to `Cc1nc2cc(NS(=O)(=O)c3ccc(Br)cc3C)ccc2s1` [compound 523], the inhibition at 10 µM was found to be 8%.

Take `Cc1nc2cc(NS(=O)(=O)c3cccc4cccnc34)ccc2s1` [compound 552]: the inhibition at 10 µM was determined as 24%.

As to `Cc1nc2cc(NS(=O)(=O)c3cccc4ccccc34)ccc2s1` [compound 553], the inhibition at 10 µM is 18%.

As to `Cc1nc2cc(NS(=O)(=O)c3cccc4c(N(C)C)cccc34)ccc2s1` [compound 554], the inhibition at 10 µM was determined as 43%.

Take `Cc1nc2cc(NS(=O)(=O)c3cc(Cl)ccc3Cl)ccc2s1` [compound 580]: the inhibition at 10 µM amounted to 1.4%.

On to `Cc1nc2cc(NS(=O)(=O)c3ccc4c(c3)CN(C(=O)C(F)(F)F)CC4)ccc2s1` [compound 581], for which the inhibition at 10 µM was 32%.

Turning to `COc1ccc(Cl)cc1S(=O)(=O)Nc1ccc2sc(C)nc2c1` [compound 582], the inhibition at 10 µM is 0.7%.

`Cc1nc2cc(NS(=O)(=O)c3ccccc3C#N)ccc2s1` [compound 583]: the inhibition at 10 µM is 0.4%.

On to `COc1cc(C)ccc1S(=O)(=O)Nc1ccc2sc(C)nc2c1` [compound 584], for which the inhibition at 10 µM is 10%.

`Cc1nc2cc(NS(=O)(=O)c3ccc(Oc4ccccc4)cc3)ccc2s1` [compound 585]: the inhibition at 10 µM was 1.6%.

Take `CC(=O)c1ccccc1S(=O)(=O)Nc1ccc2sc(C)nc2c1` [compound 701]: the inhibition at 10 µM is 36%.

Consider `Cc1nc2cc(NS(=O)(=O)c3c(C(C)C)cc(C(C)C)cc3C(C)C)ccc2s1` [compound 703], for which the inhibition at 10 µM turned out to be 4%.

For `Cc1nc2cc(NS(=O)(=O)c3ccc(C(C)C)cc3)ccc2s1` [compound 704], the inhibition at 10 µM came out at 4%.

Regarding `COC(=O)c1ccccc1S(=O)(=O)Nc1ccc2sc(C)nc2c1` [compound 705], the inhibition at 10 µM came to 6%.

For the compound `COc1c(C)c(C)c(S(=O)(=O)Nc2ccc3sc(C)nc3c2)c(C)c1C` [compound 708], the inhibition at 10 µM was determined as 11%.

Take `Cc1nc2cc(NS(=O)(=O)c3ccc(C(C)(C)C)cc3)ccc2s1` [compound 709]: the inhibition at 10 µM came out at 13%.

In the case of `Cc1nc2cc(NS(=O)(=O)c3c(C)c(C)c(C)c(C)c3C)ccc2s1` [compound 710], the inhibition at 10 µM was found to be 10%.

Take `CCSc1nc2ccc(NS(=O)(=O)c3cccc(Cl)c3C)cc2s1` [compound 751]: the inhibition at 10 µM was 5%.
